{"source": "patent US11123337B2", "about": "“4-methylsulfonyl-substituted piperidine urea compounds” (MYOKARDIA, INC., priority 2015, dated 2021)", "target": "bovine cardiac myosin (Bos taurus, UniProt Q9BE39)", "sequence (Q9BE39 whole entry)": "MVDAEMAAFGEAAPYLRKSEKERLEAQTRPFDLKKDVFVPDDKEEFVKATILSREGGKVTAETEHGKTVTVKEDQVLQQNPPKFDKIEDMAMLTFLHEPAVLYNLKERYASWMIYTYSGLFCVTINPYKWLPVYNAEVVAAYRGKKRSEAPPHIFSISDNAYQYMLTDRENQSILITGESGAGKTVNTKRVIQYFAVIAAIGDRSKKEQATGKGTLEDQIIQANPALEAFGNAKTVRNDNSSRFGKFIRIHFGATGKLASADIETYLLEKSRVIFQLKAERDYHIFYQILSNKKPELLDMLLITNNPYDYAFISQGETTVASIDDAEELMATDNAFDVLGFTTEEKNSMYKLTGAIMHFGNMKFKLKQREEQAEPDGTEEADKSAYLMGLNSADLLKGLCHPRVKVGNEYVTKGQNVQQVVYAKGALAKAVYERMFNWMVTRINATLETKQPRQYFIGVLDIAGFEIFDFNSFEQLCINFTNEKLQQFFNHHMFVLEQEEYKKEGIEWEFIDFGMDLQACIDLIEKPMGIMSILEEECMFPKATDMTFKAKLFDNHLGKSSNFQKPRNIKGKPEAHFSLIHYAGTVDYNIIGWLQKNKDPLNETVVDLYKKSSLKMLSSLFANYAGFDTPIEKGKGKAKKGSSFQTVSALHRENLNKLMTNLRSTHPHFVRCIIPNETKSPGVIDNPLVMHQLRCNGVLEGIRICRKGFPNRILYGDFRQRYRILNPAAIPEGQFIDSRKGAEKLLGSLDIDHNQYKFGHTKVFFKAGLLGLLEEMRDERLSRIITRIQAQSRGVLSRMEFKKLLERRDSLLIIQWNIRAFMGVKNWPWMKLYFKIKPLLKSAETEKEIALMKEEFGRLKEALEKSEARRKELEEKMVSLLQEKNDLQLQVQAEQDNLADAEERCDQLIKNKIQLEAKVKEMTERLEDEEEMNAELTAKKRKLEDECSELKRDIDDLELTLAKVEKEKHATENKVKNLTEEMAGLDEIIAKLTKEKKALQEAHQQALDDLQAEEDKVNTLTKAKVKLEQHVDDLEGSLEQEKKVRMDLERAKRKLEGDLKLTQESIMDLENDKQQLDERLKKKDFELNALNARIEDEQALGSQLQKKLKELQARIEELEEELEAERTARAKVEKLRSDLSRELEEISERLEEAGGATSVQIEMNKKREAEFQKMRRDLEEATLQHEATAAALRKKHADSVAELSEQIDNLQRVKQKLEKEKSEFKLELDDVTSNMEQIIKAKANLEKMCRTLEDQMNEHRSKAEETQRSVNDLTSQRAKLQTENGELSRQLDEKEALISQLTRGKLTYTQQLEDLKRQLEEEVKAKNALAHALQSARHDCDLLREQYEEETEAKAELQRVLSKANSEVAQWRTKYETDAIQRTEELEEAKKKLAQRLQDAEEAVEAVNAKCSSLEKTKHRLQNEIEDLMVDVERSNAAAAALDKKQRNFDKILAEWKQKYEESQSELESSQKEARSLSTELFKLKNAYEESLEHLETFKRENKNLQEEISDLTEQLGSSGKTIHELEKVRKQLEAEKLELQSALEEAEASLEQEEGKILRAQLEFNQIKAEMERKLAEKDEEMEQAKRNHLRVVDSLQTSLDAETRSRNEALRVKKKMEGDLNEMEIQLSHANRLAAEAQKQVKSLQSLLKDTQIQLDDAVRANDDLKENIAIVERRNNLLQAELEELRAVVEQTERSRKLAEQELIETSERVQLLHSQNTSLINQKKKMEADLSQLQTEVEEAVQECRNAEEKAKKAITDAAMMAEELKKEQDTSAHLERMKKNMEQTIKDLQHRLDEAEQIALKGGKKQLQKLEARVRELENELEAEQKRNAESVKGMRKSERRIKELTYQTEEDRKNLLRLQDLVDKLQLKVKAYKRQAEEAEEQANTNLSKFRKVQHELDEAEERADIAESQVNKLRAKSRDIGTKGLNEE", "sequence (P85100 whole entry partner)": "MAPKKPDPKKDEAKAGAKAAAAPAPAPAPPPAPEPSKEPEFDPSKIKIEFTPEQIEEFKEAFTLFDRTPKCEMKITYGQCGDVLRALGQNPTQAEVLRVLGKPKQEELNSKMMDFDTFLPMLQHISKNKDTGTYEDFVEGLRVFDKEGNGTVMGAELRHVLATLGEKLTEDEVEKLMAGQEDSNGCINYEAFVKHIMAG", "sequence (Q3SZE5 whole entry partner)": "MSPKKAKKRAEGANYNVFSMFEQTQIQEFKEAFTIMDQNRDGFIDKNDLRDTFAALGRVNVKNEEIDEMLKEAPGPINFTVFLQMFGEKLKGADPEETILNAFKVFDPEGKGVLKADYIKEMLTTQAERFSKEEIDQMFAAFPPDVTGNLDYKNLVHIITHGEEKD", "test": "Myosin activation assay (PK/LDH-coupled ATPase, bovine cardiac myofibrils)", "format": "biochemical", "settings": "AC20 = concentration at which total response is increased by twenty percent", "in_short": "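Skinned bovine cardiac myofibrils (1 mg/mL) in PIPES/MgCl2 buffer pH 6.8 at free Ca2+ giving ~50% (pCa ~6) or <5% (pCa 10) activation, with 50 μM ATP and 3.3% DMSO. ATPase rate from NADH absorbance at 340 nm (PK/LDH coupling) over 15 min at ambient temperature. AC20/AC50 from a four-parameter fit of DMSO-normalised rates.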"}
{"smiles": "CC(F)(C1CCN(C(=O)Nc2nnco2)CC1)S(=O)(=O)c1cccc(F)c1", "note": "(stereo not shown) [Compound 222, 4-(1-fluoro-1-((3-fluorophenyl)sulfonyl)ethyl)-N-(1,3,4-oxadiazol-2-yl)piperidine-1-carboxamide]", "values": [{"measurement": "Myosin Activation (AC20)", "value": "+ (+ represents myosin activation value AC20 > 5 μM)"}]}
{"smiles": "CC(F)(C1CCN(C(=O)Nc2cncc(F)c2)CC1)S(=O)(=O)c1cccc(F)c1", "note": "(stereo not shown) [Compound 223, 4-(1-fluoro-1-((3-fluorophenyl)sulfonyl)ethyl)-N-(5-fluoropyridin-3-yl)piperidine-1-carboxamide]", "values": [{"measurement": "Myosin Activation (AC20)", "value": "+ (+ represents myosin activation value AC20 > 5 μM)"}]}
{"smiles": "CC(F)(C1CCN(C(=O)Nc2cccnc2)CC1)S(=O)(=O)c1cccc(F)c1", "note": "(stereo not shown) [Compound 224, 4-(1-fluoro-1-((3-fluorophenyl)sulfonyl)ethyl)-N-(pyridin-3-yl)piperidine-1-carboxamide]", "values": [{"measurement": "Myosin Activation (AC20)", "value": "++ (++ represents myosin activation value AC20 from 2 μM-5 μM)"}]}
{"smiles": "Cc1ccc(NC(=O)N2CCC(C(C)(F)S(=O)(=O)c3ccnn3C)CC2)cn1", "note": "(stereo not shown) [Compound 225, 4-(1-fluoro-1-((1-methyl-1H-pyrazol-5-yl)sulfonyl)ethyl)-N-(6-methylpyridin-3-yl)piperidine-1-carboxamide]", "values": [{"measurement": "Myosin Activation (AC20)", "value": "++ (++ represents myosin activation value AC20 from 2 μM-5 μM)"}]}
{"smiles": "Cn1nccc1S(=O)(=O)C(C)(F)C1CCN(C(=O)Nc2ccnc(F)c2)CC1", "note": "(stereo not shown) [Compound 226, 4-(1-fluoro-1-((1-methyl-1H-pyrazol-5-yl)sulfonyl)ethyl)-N-(2-fluoropyridin-4-yl)piperidine-1-carboxamide]", "values": [{"measurement": "Myosin Activation (AC20)", "value": "+ (+ represents myosin activation value AC20 > 5 μM)"}]}
{"smiles": "Cn1nccc1S(=O)(=O)C(C)(F)C1CCN(C(=O)Nc2cccnc2)CC1", "note": "(stereo not shown) [Compound 227, 4-(1-fluoro-1-((1-methyl-1H-pyrazol-5-yl)sulfonyl)ethyl)-N-(pyridin-3-yl)piperidine-1-carboxamide]", "values": [{"measurement": "Myosin Activation (AC20)", "value": "+ (+ represents myosin activation value AC20 > 5 μM)"}]}
{"smiles": "Cn1nccc1S(=O)(=O)C(C)(F)C1CCN(C(=O)Nc2ccc(F)nc2)CC1", "note": "(stereo not shown) [Compound 228, 4-(1-fluoro-1-((1-methyl-1H-pyrazol-5-yl)sulfonyl)ethyl)-N-(6-fluoropyridin-3-yl)piperidine-1-carboxamide]", "values": [{"measurement": "Myosin Activation (AC20)", "value": "++ (++ represents myosin activation value AC20 from 2 μM-5 μM)"}]}
{"smiles": "Cn1nc(C(F)(F)F)cc1S(=O)(=O)[C@](C)(F)C1CCN(C(=O)Nc2ccon2)CC1", "note": "[Compound 229]", "values": [{"measurement": "Myosin Activation (AC20)", "value": "+ (+ represents myosin activation value AC20 > 5 μM)"}]}
{"smiles": "Cn1nc(C(F)(F)F)cc1S(=O)(=O)[C@](C)(F)C1CCN(C(=O)Nc2ccnc(F)c2)CC1", "note": "[Compound 230, (S)-4-(1-fluoro-1-((1-methyl-3-(trifluoromethyl)-1H-pyrazol-5-yl)sulfonyl)ethyl)-N-(2-fluoropyridin-4-yl)piperidine-1-carboxamide]", "values": [{"measurement": "Myosin Activation (AC20)", "value": "+ (+ represents myosin activation value AC20 > 5 μM)"}]}
{"smiles": "Cn1cc(S(=O)(=O)[C@](C)(F)C2CCN(C(=O)Nc3ccnc(F)c3)CC2)c(C(F)F)n1", "note": "[Compound 231, (S)-4-(1-((3-(difluoromethyl)-1-methyl-1H-pyrazol-4-yl)sulfonyl)-1-fluoroethyl)-N-(2-fluoropyridin-4-yl)piperidine-1-carboxamide]", "values": [{"measurement": "Myosin Activation (AC20)", "value": "+ (+ represents myosin activation value AC20 > 5 μM)"}]}
{"smiles": "Cc1cc(NC(=O)N2CCC([C@](C)(F)S(=O)(=O)c3cc(C(F)(F)F)nn3C)CC2)ccn1", "note": "[Compound 232, (R)-4-(1-fluoro-1-((1-methyl-3-(trifluoromethyl)-1H-pyrazol-5-yl)sulfonyl)ethyl)-N-(2-methylpyridin-4-yl)piperidine-1-carboxamide]", "values": [{"measurement": "Myosin Activation (AC20)", "value": "+++ (+++ represents myosin activation value AC20 < 2 μM)"}]}
{"smiles": "Cc1cc(NC(=O)N2CCC([C@](C)(F)S(=O)(=O)c3cn(C)nc3C(F)F)CC2)ccn1", "note": "[Compound 233, (R)-4-(1-((3-(difluoromethyl)-1-methyl-1H-pyrazol-4-yl)sulfonyl)-1-fluoroethyl)-N-(2-methylpyridin-4-yl)piperidine-1-carboxamide]", "values": [{"measurement": "Myosin Activation (AC20)", "value": "+++ (+++ represents myosin activation value AC20 < 2 μM)"}]}
{"smiles": "CC(F)(C1CCN(C(=O)Nc2ccon2)CC1)S(=O)(=O)c1cccc(F)c1", "note": "(stereo not shown) [Compound 234, 4-(1-fluoro-1-((3-fluorophenyl)sulfonyl)ethyl)-N-(isoxazol-3-yl)piperidine-1-carboxamide]", "values": [{"measurement": "Myosin Activation (AC20)", "value": "+++ (+++ represents myosin activation value AC20 < 2 μM)"}]}
{"smiles": "CC(F)(C1CCN(C(=O)Nc2cnoc2)CC1)S(=O)(=O)c1cccc(F)c1", "note": "(stereo not shown) [Compound 235, 4-(1-fluoro-1-((3-fluorophenyl)sulfonyl)ethyl)-N-(isoxazol-4-yl)piperidine-1-carboxamide]", "values": [{"measurement": "Myosin Activation (AC20)", "value": "+++ (+++ represents myosin activation value AC20 < 2 μM)"}]}
{"smiles": "CC(F)(C1CCN(C(=O)Nc2ccnc(F)c2)CC1)S(=O)(=O)c1cccc(F)c1", "note": "(stereo not shown) [Compound 236, 4-(1-fluoro-1-((3-fluorophenyl)sulfonyl)ethyl)-N-(2-fluoropyridin-4-yl)piperidine-1-carboxamide]", "values": [{"measurement": "Myosin Activation (AC20)", "value": "++ (++ represents myosin activation value AC20 from 2 μM-5 μM)"}]}
{"smiles": "CC(C)(C)OC(=O)n1cc(NC(=O)N2CCC(C(C)(F)S(=O)(=O)c3cccc(F)c3)CC2)cn1", "note": "(stereo not shown) [Compound 237, tert-butyl 4-(4-(1-fluoro-1-((3-fluorophenyl)sulfonyl)ethyl)piperidine-1-carboxamido)-1H-pyrazole-1-carboxylate]", "values": [{"measurement": "Myosin Activation (AC20)", "value": "+ (+ represents myosin activation value AC20 > 5 μM)"}]}
{"smiles": "Cc1nocc1NC(=O)N1CCC(C(C)(F)S(=O)(=O)c2cccc(F)c2)CC1", "note": "(stereo not shown) [Compound 238, 4-(1-fluoro-1-((3-fluorophenyl)sulfonyl)ethyl)-N-(3-methylisoxazol-4-yl)piperidine-1-carboxamide]", "values": [{"measurement": "Myosin Activation (AC20)", "value": "+ (+ represents myosin activation value AC20 > 5 μM)"}]}
{"smiles": "CC(F)(C1CCN(C(=O)Nc2ccc(F)nc2)CC1)S(=O)(=O)c1cccc(F)c1", "note": "(stereo not shown) [Compound 239, 4-(1-fluoro-1-((3-fluorophenyl)sulfonyl)ethyl)-N-(6-fluoropyridin-3-yl)piperidine-1-carboxamide]", "values": [{"measurement": "Myosin Activation (AC20)", "value": "++ (++ represents myosin activation value AC20 from 2 μM-5 μM)"}]}
{"smiles": "CC(F)(C1CCN(C(=O)Nc2ccc(F)nc2)CC1)S(=O)(=O)c1ccc(C#N)cc1", "note": "(stereo not shown) [Compound 240, 4-(1-((4-cyanophenyl)sulfonyl)-1-fluoroethyl)-N-(6-fluoropyridin-3-yl)piperidine-1-carboxamide]", "values": [{"measurement": "Myosin Activation (AC20)", "value": "++ (++ represents myosin activation value AC20 from 2 μM-5 μM)"}]}
{"smiles": "CC(F)(C1CCN(C(=O)Nc2ccc(F)nc2)CC1)S(=O)(=O)c1cccc(C#N)c1", "note": "(stereo not shown) [Compound 241, 4-(1-((3-cyanophenyl)sulfonyl)-1-fluoroethyl)-N-(6-fluoropyridin-3-yl)piperidine-1-carboxamide]", "values": [{"measurement": "Myosin Activation (AC20)", "value": "+ (+ represents myosin activation value AC20 > 5 μM)"}]}
{"smiles": "CC(F)(C1CCN(C(=O)Nc2ccc(F)nc2)CC1)S(=O)(=O)c1ccc(C(F)(F)F)cc1", "note": "(stereo not shown) [Compound 242, 4-(1-fluoro-1-((4-(trifluoromethyl)phenyl)sulfonyl)ethyl)-N-(6-fluoropyridin-3-yl)piperidine-1-carboxamide]", "values": [{"measurement": "Myosin Activation (AC20)", "value": "++ (++ represents myosin activation value AC20 from 2 μM-5 μM)"}]}
{"smiles": "CC(F)(C1CCN(C(=O)Nc2ccnc(F)c2)CC1)S(=O)(=O)c1ccc(C(F)(F)F)cc1", "note": "(stereo not shown) [Compound 243, 4-(1-fluoro-1-((4-(trifluoromethyl)phenyl)sulfonyl)ethyl)-N-(2-fluoropyridin-4-yl)piperidine-1-carboxamide]", "values": [{"measurement": "Myosin Activation (AC20)", "value": "++ (++ represents myosin activation value AC20 from 2 μM-5 μM)"}]}
{"smiles": "Cn1cc(S(=O)(=O)C(C)(F)C2CCN(C(=O)Nc3ccc(F)nc3)CC2)c(C(F)(F)F)n1", "note": "(stereo not shown) [Compound 244, 4-(1-fluoro-1-((1-methyl-3-(trifluoromethyl)-1H-pyrazol-4-yl)sulfonyl)ethyl)-N-(6-fluoropyridin-3-yl)piperidine-1-carboxamide]", "values": [{"measurement": "Myosin Activation (AC20)", "value": "+ (+ represents myosin activation value AC20 > 5 μM)"}]}
{"smiles": "Cn1cc(S(=O)(=O)C(C)(F)C2CCN(C(=O)Nc3ccnc(F)c3)CC2)c(C(F)(F)F)n1", "note": "(stereo not shown) [Compound 245, 4-(1-fluoro-1-((1-methyl-3-(trifluoromethyl)-1H-pyrazol-4-yl)sulfonyl)ethyl)-N-(2-fluoropyridin-4-yl)piperidine-1-carboxamide]", "values": [{"measurement": "Myosin Activation (AC20)", "value": "++ (++ represents myosin activation value AC20 from 2 μM-5 μM)"}]}
{"smiles": "Cc1ccc(NC(=O)N2CCC(C(C)(F)S(=O)(=O)c3cn(C)nc3C(F)(F)F)CC2)cn1", "note": "(stereo not shown) [Compound 247, 4-(1-fluoro-1-((1-methyl-3-(trifluoromethyl)-1H-pyrazol-4-yl)sulfonyl)ethyl)-N-(6-methylpyridin-3-yl)piperidine-1-carboxamide]", "values": [{"measurement": "Myosin Activation (AC20)", "value": "+ (+ represents myosin activation value AC20 > 5 μM)"}]}
{"smiles": "Cn1cc(S(=O)(=O)[C@@](C)(F)C2CCN(C(=O)Nc3cocn3)CC2)c(C(F)F)n1", "note": "[Compound 248, (R)-4-(1-((3-(difluoromethyl)-1-methyl-1H-pyrazol-4-yl)sulfonyl)-1-fluoroethyl)-N-(oxazol-4-yl)piperidine-1-carboxamide]", "values": [{"measurement": "Myosin Activation (AC20)", "value": "+ (+ represents myosin activation value AC20 > 5 μM)"}]}
{"smiles": "Cn1nc(C(F)(F)F)cc1S(=O)(=O)C(C)(F)C1CCN(C(=O)Nc2ccon2)CC1", "note": "(stereo not shown) [Compound 249, 4-(1-fluoro-1-((1-methyl-3-(trifluoromethyl)-1H-pyrazol-5-yl)sulfonyl)ethyl)-N-(isoxazol-3-yl)piperidine-1-carboxamide]", "values": [{"measurement": "Myosin Activation (AC20)", "value": "++ (++ represents myosin activation value AC20 from 2 μM-5 μM)"}]}
{"smiles": "Cc1ccc(NC(=O)N2CCC(C(C)(F)S(=O)(=O)c3cc(C(F)(F)F)nn3C)CC2)cn1", "note": "(stereo not shown) [Compound 250, 4-(1-fluoro-1-((1-methyl-3-(trifluoromethyl)-1H-pyrazol-5-yl)sulfonyl)ethyl)-N-(6-methylpyridin-3-yl)piperidine-1-carboxamide]", "values": [{"measurement": "Myosin Activation (AC20)", "value": "++ (++ represents myosin activation value AC20 from 2 μM-5 μM)"}]}
